Reference: paper PMC8252719, “Macrocyclic FKBP51 Ligands Define a Transient Binding Mode with Enhanced Selectivity” (Angewandte Chemie (International Ed. in English), 2021)
Like-named read-outs stand apart in the source and are kept apart here.

Assays:
FKBP12 = FKBP12 (Homo sapiens, UniProt P62942); experiment: competitive fluorescence polarization assay, FKBP12; assay type: binding; settings: for Ki: competitive fluorescence polarization assay, >80 μM = highest measurable concentration before compound precipitation, ± = standard error from three independent measurements, read-out: FKBP12 K i
[1] = test system: IKKα phosphorylation in SIM-A9 cells; experiment: IKKα inhibition in SIM-A9 cells (Western blot); assay type: cell-based, murine; settings: for dose-dependence of inhibition of IKKα phosphorylation / inhibition of IKKα phosphorylation (in words): murine microglia SIM-A9 cells, 16 h treatment, Western blot; for inhibition of IKKα phosphorylation (in words): three (macrocycles) or six (SAFit) independent cellular assays; for concentration at which apparent maximal inhibition of IKKα phosphorylation was already reached: SIM-A9 cells, lowest tested concentration
Protocol: We next explored if the macrocyclic ligands could interfere with the cellular functions of FKBP51. We therefore treated SIM‐A9 cells, which were recently discovered as a SAFit‐sensitive cellular model for stress‐mediated secretory autophagy. ^[24] […] (Figure 2 F and S6C). […]
5.2 IKKα inhibition in SIM-A9 cells
Cell culture and treatments
Murine microglia SIM-A9 cells were cultured at 37 °C, 5% CO2 in Dulbecco's Modified Eagle Medium (DMEM) high glucose with GlutaMAX (Thermo Fisher Scientific, 10566016), supplemented with 1 mM sodium pyruvate (Thermo Fisher Scientific, 11360-070), 10% fetal bovine serum (PAN Biotech, P30-8500), and 1% antibiotic-antimycotic (Thermo Fisher Scientific, 15240-062).
For the preparation of whole-cell lysates, confluent SIM-A9 cell cultures treated with the indicated compounds for 16 h in the above mentioned growth medium, were washed two times with ice-cold DPBS (Thermo Fisher Scientific, 14190-144) and lysed in an appropriate volume of RIPA buffer (Thermo Fisher Scientific, 89901), freshly supplemented with 1x cOmplete™ EDTA-free protease inhibitor cocktail (Roche, 4693132001) and 1x PhosSTOP™ phosphatase inhibitor cocktail (Roche, 4906837001) for 20 min on ice.
Subsequently, samples were centrifuged for 10 min at 4°C at 13000 rpm. The resulting supernatants were transferred to new 1.5 ml reaction tubes and prepared for separation with an SDS-PAGE system and analyzed by immunoblotting.
SDS-PAGE and immunoblotting
Separation of proteins was performed with the Criterion™ Vertical Electrophoresis Cell System (Bio-Rad, 1656001) on 4–20% Criterion™ TGX™ Precast Midi Protein Gels (Bio-Rad, 5671095). Immunoblotting was performed with the Trans-Blot Turbo Transfer System (Bio-Rad, 1704150) on 0.2 µm PVDF Trans-Blot Turbo Transfer Membranes (Bio-Rad, 1704157). For immunodetection, membranes were placed in TBS, supplemented with 0.05% Tween (Sigma-Aldrich, P9416) and 5% non-fat milk (Carl Roth, T145.1) for 1 h at RT and then incubated with the primary antibody diluted in TBS-T overnight at 4°C. Following primary antibodies were used:
Phospho-IKKα S176/phospho-IKKβ S177 (1:1000, Cell Signaling Technology, 2078), IKKα (1:1000, Cell Signaling Technology, 1682) and GAPDH (1:1000, Cell Signaling Techology, 5174).
Then, immunoblots were washed and probed with horseradish peroxidase- conjugated secondary antibody (1:10000, Cell Signaling Technology, 7074) for 1 h at RT. Immunoreactive protein bands were visualized using Clarity Western ECL Substrate (Bio-Rad, 1705061) or Clarity Max Western ECL Substrate (Bio-Rad, 1705062). Determination of the band intensities was performed with […]

FKBP12.6 = FKBP12.6 (Homo sapiens, UniProt P68106); experiment: competitive fluorescence polarization assay, FKBP12.6; assay type: binding; settings: for Ki: competitive fluorescence polarization assay, >80 μM = highest measurable concentration before compound precipitation, ± = standard error from three independent measurements, read-out: FKBP12.6 K i
FKBP51FK1 [2] = molecular target: T1, FKBP51FK1 (Homo sapiens, UniProt Q13451); experiment: competitive fluorescence polarization assay, FKBP51FK1; assay type: binding; settings: ± = standard error from three independent measurements [b] or error from two independent measurements [d], read-out: FKBP51FK1 K i
T1 sequence (Q13451 42-130 limits assumed): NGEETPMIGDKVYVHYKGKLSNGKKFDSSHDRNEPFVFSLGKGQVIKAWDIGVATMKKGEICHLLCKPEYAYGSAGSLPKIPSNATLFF
Protocol: Table S1. Ki values were determined by a competitive fluoresc ence polarization assay.
4.1 Binding curves of 13a, c and d […]

FKBP51FK1 [3] = molecular target: T1, FKBP51FK1; experiment: isothermal titration calorimetry (ITC); assay type: binding
Protocol: 1. ITC of compounds 13a and 13d
Figure S1. A) Binding of compound 13a to FKBP51FK1 determined by isothermal titration calorimetry at 25 °C. A 20 µM solution FKBP51FK1 formulated in 20 mM
HEPES pH 8.0, 20 mM NaCl, 5% glycerol and 2% DMSO was placed in the sample cell of a PEAK-ITC instrument. The syringe was filled with a 200 µM solution of
13a formulated in the same buffer. After equilibration the compound was titrated into the sample cell by 12 injection s of 3 µl each. The obtained data was analyzed
Binding of compound 13d to FKBP51FK1 determined by isothermal titration calorimetry at 25 °C. A 13 µM solution FKBP51FK1 formulated in 20 mM HEPES pH
8.0, 20 mM NaCl, 5% glycerol and 2% DMSO was placed in the sample cell of a PEAK -ITC instrument. The syringe was filled with a 10 0 µM solution of 13d
formulated in the same buffer. After equilibration the compound was titrated into the sample cell by 12 injections of 3 µl each. The obtained data was analyzed using […]

[4] = fluorescence polarization assay

Chain of FKBP12.6 (P68106 whole entry): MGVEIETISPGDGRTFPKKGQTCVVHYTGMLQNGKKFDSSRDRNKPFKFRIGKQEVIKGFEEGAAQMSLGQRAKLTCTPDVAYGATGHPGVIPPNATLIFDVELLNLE
Chain of FKBP12 (P62942 whole entry): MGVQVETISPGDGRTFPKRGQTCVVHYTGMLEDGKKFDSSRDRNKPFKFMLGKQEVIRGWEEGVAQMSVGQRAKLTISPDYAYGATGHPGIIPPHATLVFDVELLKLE

| SMILES | Ki (FKBP12) [µM] | Ki (FKBP12.6) [µM] | Ki (FKBP51FK1 [2]) [µM] | inhibition of IKKα phosphorylation (in words) [1] | also measured |
| --- | --- | --- | --- | --- | --- |
| COc1ccc(CC[C@@H](OC(=O)[C@@H]2CCCCN2C(=O)[C@H](c2cc(OC)c(OC)c(OC)c2)C2CCCCC2)c2cccc(OCC(=O)O)c2)cc1OC [SAFit1, reference compound] |  |  |  | inhibited | Ki (FKBP12; SEM): 0.163 ± 0.009 µM; dose-dependence of inhibition of IKKα phosphorylation [1]: clear dose‐dependence; Ki (FKBP12.6; SEM): 0.019 ± 0.002 µM; Ki (FKBP51FK1 [2]; SEM): 0.004 ± 0.001 µM |
| COc1ccc(CC[C@H]2OC(=O)[C@@H]3CCCCN3C(=O)[C@@H](C3CCCCC3)NC(=O)[C@@H](C)NC(=O)COc3cccc2c3)cc1OC [13 b, (2R,5S,12R,15R)-12-cyclohexyl-2-[2-(3,4-dimethoxyphenyl)ethyl]-15-methyl-3,19-dioxa-10,13,16-triazatricyclo[18.3.1.0⁵,¹⁰]tetracosa-1(24),20,22-triene-4,11,14,17-tetrone] | > 80 | > 80 |  |  |  |
| COc1ccc(CC[C@@H](OC(=O)[C@@H]2CCCCN2C(=O)[C@H](c2cc(OC)c(OC)c(OC)c2)C2CCCCC2)c2cccc(OCCN3CCOCC3)c2)cc1OC [SAFit2, reference compound] |  |  |  | inhibited | dose-dependence of inhibition of IKKα phosphorylation [1]: clear dose‐dependence |
| COc1ccc(CC[C@H]2OC(=O)[C@@H]3CCCCN3C(=O)[C@@H](C3CCCCC3)NC(=O)C3(CCC3)NC(=O)COc3cccc2c3)cc1OC [13 e] | > 80 | > 80 | 0.4 | inhibited | dose-dependence of inhibition of IKKα phosphorylation [1]: clear dose‐dependence |
| COc1ccc(CC[C@H]2OC(=O)[C@@H]3CCCCN3C(=O)[C@@H](C3CCCCC3)NC(=O)CNC(=O)COc3cccc2c3)cc1OC [13 a] | > 80 | > 80 |  |  | Ki (FKBP51FK1 [2]; SEM): 2.3 ± 0.05 µM; Kd (FKBP51FK1 [3]; 25 °C, 20 mM HEPES pH 8.0, 20 mM NaCl, 5% glycerol, 2% DMSO, one-site binding model, mean ± SD from 3 independent experiments, SD, read-out: Kd-value for FKBP51FK1 by ITC): 3.6 ± 0.9 µM; Kd (FKBP51FK1 [3]; isothermal calorimetry, enthalpy-driven, read-out: K d for FKBP51 by ITC): 3.6 µM |
| COc1ccc(CC[C@H]2OC(=O)[C@@H]3CCCCN3C(=O)[C@@H](C3CCCCC3)NC(=O)C(C)(C)NC(=O)COc3cccc2c3)cc1OC [13 c] | > 80 | > 80 |  | inhibited | concentration at which apparent maximal inhibition of IKKα phosphorylation was already reached [1]: ≤ 1 µM; Ki (FKBP51FK1 [2]; SEM): 0.29 ± 0.05 µM |
| COc1ccc(CCC2OC(=O)C3CCCCN3C(=O)C(C3CCCCC3)CC(O)C(O)COCCOc3cccc2c3)cc1OC (mixture of isomers) [9 g] |  |  | 1.2 |  | binding to FKBP12 (in words) (FKBP12; [4]): did not bind; binding to FKBP12.6 (in words) (FKBP12.6; [4]): did not bind |

The next lines start with results.

| Ki (FKBP12) [µM] | Ki (FKBP12.6) [µM] | Ki (FKBP51FK1 [2]) [µM] | SMILES | inhibition of IKKα phosphorylation (in words) [1] | also measured |
| --- | --- | --- | --- | --- | --- |
| > 80 | > 80 |  | COc1ccc(CC[C@H]2OC(=O)[C@@H]3CCCCN3C(=O)[C@@H](C3CCCCC3)NC(=O)[C@H](C)NC(=O)COc3cccc2c3)cc1OC [13 j, (2R,5S,12R,15S)-12-cyclohexyl-2-[2-(3,4-dimethoxyphenyl)ethyl]-15-methyl-3,19-dioxa-10,13,16-triazatricyclo[18.3.1.0⁵,¹⁰]tetracosa-1(24),20,22-triene-4,11,14,17-tetrone] |  |  |
| > 80 | > 80 |  | COc1ccc(CC[C@H]2OC(=O)[C@@H]3CCCCN3C(=O)[C@@H](C3CCCCC3)NC(=O)[C@@H]3CCCN3C(=O)COc3cccc2c3)cc1OC [13 k, (9S,12R,19S,22R)-12-cyclohexyl-22-[2-(3,4-dimethoxyphenyl)ethyl]-2,21-dioxa-5,11,14-triazatetracyclo[21.3.1.0⁵,⁹.0¹⁴,¹⁹]heptacosa-1(26),23(27),24-triene-4,10,13,20-tetrone] |  |  |
| > 80 | > 80 | 7.4 | COc1ccc(CC[C@H]2OC(=O)[C@@H]3CCCCN3C(=O)[C@@H](C3CCCCC3)NC(=O)CCNC(=O)COc3cccc2c3)cc1OC [13 l] |  |  |
| > 80 | > 80 | 3.1 | COc1ccc(CC[C@H]2OC(=O)[C@@H]3CCCCN3C(=O)[C@@H](C3CCCCC3)NC(=O)CN(C)C(=O)COc3cccc2c3)cc1OC [13 g] |  |  |
| > 80 | > 80 |  | COc1ccc(CC[C@H]2OC(=O)[C@@H]3CCCCN3C(=O)[C@@H](C3CCCCC3)NC(=O)[C@H]3CCCN3C(=O)COc3cccc2c3)cc1OC [13 i, (9R,12R,19S,22R)-12-cyclohexyl-22-[2-(3,4-dimethoxyphenyl)ethyl]-2,21-dioxa-5,11,14-triazatetracyclo[21.3.1.0⁵,⁹.0¹⁴,¹⁹]heptacosa-1(26),23(27),24-triene-4,10,13,20-tetrone] | inhibited | dose-dependence of inhibition of IKKα phosphorylation [1]: clear dose‐dependence |
| > 80 | > 80 | 1.3 | COc1ccc(CC[C@H]2OC(=O)[C@@H]3CCCCN3C(=O)[C@@H](C3CCCCC3)NC(=O)C3(CCCC3)NC(=O)COc3cccc2c3)cc1OC [13 f] |  |  |
| > 80 | > 80 | 0.37 | COc1ccc(CC[C@H]2OC(=O)[C@@H]3CCCCN3C(=O)[C@@H](C3CCCCC3)NC(=O)C(C)(C)N(C)C(=O)COc3cccc2c3)cc1OC [13 h] | inhibited | concentration at which apparent maximal inhibition of IKKα phosphorylation was already reached [1]: ≤ 1 µM |
